B1: ATP-binding cassette sub-family C member 2 (Rattus norvegicus) (protein)
chain: MDKFCNSTFWDLSLLESPEADLPLCFEQTVLVWIPLGFLWLLAPWQLYSVYRSRTKRSSITKFYLAKQVFVVFLLILAAIDLSLALTEDTGQATVPPVRYTNPILYLCTWLLVLAVQHSRQWCVRKNSWFLSLFWILSVLCGVFQFQTLIRALLKDSKSNMAYSYLFFVSYGFQIVLLILTAFSGPSDSTQTPSVTASFLSSITFSWYDRTVLKGYKHPLTLEDVWDIDEGFKTRSVTSKFEAAMTKDLQKARQAFQRRLQKSQRKPEATLHGLNKKQSQSQDVLVLEEAKKKSEKTTKDYPKSWLIKSLFKTFHVVILKSFILKLIHDLLVFLNPQLLKLLIGFVKSSNSYVWFGYICAILMFAVTLIQSFCLQSYFQHCFVLGMCVRTTVMSSIYKKALTLSNLARKQYTIGETVNLMSVDSQKLMDATNYMQLVWSSVIQITLSIFFLWRELGPSILAGVGVMVLLIPVNGVLATKIRNIQVQNMKNKDKRLKIMNEILSGIKILKYFAWEPSFQEQVQGIRKKELKNLLRFGQLQSLLIFILQITPILVSVVTFSVYVLVDSANVLNAEKAFTSITLFNILRFPLSMLPMVTSSILQASVSVDRLERYLGGDDLDTSAIRRVSNFDKAVKFSEASFTWDPDLEATIQDVNLDIKPGQLVAVVGTVGSGKSSLVSAMLGEMENVHGHITIQGSTAYVPQQSWIQNGTIKDNILFGSEYNEKKYQQVLKACALLPDLEILPGGDMAEIGEKGINLSGGQKQRVSLARAAYQDADIYILDDPLSAVDAHVGKHIFNKVVGPNGLLAGKTRIFVTHGIHFLPQVDEIVVLGKGTILEKGSYRDLLDKKGVFARNWKTFMKHSGPEGEATVNNDSEAEDDDDGLIPTMEEIPEDAASLAMRRENSLRRTLSRSSRSSSRRGKSLKNSLKIKNVNVLKEKEKEVEGQKLIKKEFVETGKVKFSIYLKYLQAVGWWSILFIILFYGLNNVAFIGSNLWLSAWTSDSDNLNGTNNSSSHRDMRIGVFGALGLAQGICLLISTLWSIYACRNASKALHGQLLTNILRAPMRFFDTTPTGRIVNRFSGDISTVDDLLPQTLRSWMMCFFGIAGTLVMICMATPVFAIIIIPLSILYISVQVFYVATSRQLRRLDSVTKSPIYSHFSETVTGLPIIRAFEHQQRFLAWNEKQIDINQKCVFSWITSNRWLAIRLELVGNLVVFCSALLLVIYRKTLTGDVVGFVLSNALNITQTLNWLVRMTSEAETNIVAVERISEYINVENEAPWVTDKRPPADWPRHGEIQFNNYQVRYRPELDLVLKGITCNIKSGEKVGVVGRTGAGKSSLTNCLFRILESAGGQIIIDGIDVASIGLHDLRERLTIIPQDPILFSGSLRMNLDPFNKYSDEEVWRALELAHLRSFVSGLQLGLLSEVTEGGDNLSIGQRQLLCLGRAVLRKSKILVLDEATAAVDLETDSLIQTTIRKEFSQCTVITIAHRLHTIMDSDKIMVLDNGKIVEYGSPEELLSNRGSFYLMAKEAGIENVNHTEL

Experiments:
Format in all cases: functional, cell membranes, Sprague-Dawley, Bile canalicular membrane vesicle
[1] = biological target: T1, ATP-binding cassette sub-family C member 2 (Rattus norvegicus, UniProt Q63120); experiment: TP_TRANSPORTER: inhibition of L-MTX uptake in bile canalicular membrane vesicles from SD rat
[2] = biological target: T1, ATP-binding cassette sub-family C member 2; experiment: TP_TRANSPORTER: inhibition of DNP-SG uptake in bile canalicular membrane vesicles from SD rat
[3] = substrate: CN(Cc1cnc2nc(N)nc(N)c2n1)c1ccc(C(=O)N[C@@H](CCC(=O)O)C(=O)O)cc1; experiment: (§1) TP_TRANSPORTER: uptake in bile canalicular membrane vesicles from SD rat
[4] = substrate: N[C@@H](CCC(=O)N[C@H](CSc1ccc([N+](=O)[O-])cc1[N+](=O)[O-])C(=O)NCC(=O)O)C(=O)O; experiment: as §1

| Molecule | Ki [1] | Ki [2] | Km [3] | Km [4] |
| --- | --- | --- | --- | --- |
| CN(Cc1cnc2nc(N)nc(N)c2n1)c1ccc(C(=O)N[C@H](CCC(=O)O)C(=O)O)cc1 | 92.8 µM |  |  |  |
| CN(Cc1cnc2nc(N)nc(N)c2n1)c1ccc(C(=O)N[C@@H](CCC(=O)O)C(=O)O)cc1 [METHOTREXATE] | 326 µM | 236 µM |  |  |
| B1 |  |  | 296 µM | 10.7 µM |

From ChEMBL document CHEMBL2074089, “Methotrexate is excreted into the bile by canalicular multispecific organic anion transporter in rats” (Cancer Res, 1997)
